Measured values from patent publication US12594258B2, “Inhibitors of MHC-I Nef downmodulation for treating HIV” (priority 2019, dated 2026).
pEC50: −log10 of the molar value. Entries after “also recorded” stand apart in the source; their conditions may differ. Like-named read-outs stand apart in the source and are kept apart here.

Experiments:
HIV Nef [1] = test system: HIV Nef
Experimental: Anonymized Leukocytes isolated by apheresis were obtained from the New York Blood Center, and peripheral blood mononuclear cells (PBMCs) were isolated by Ficoll-Hypaque centrifugation using SepMate tubes (Stemcell Technologies, 85450) according to manufacturer's protocol. CD8^+ lymphocytes were depleted with Dynabeads according to manufacturer's protocol (Invitrogen, 11147D), and the remaining cells were incubated at a density of 2×10^6 cells/mL in R10 medium and stimulated with 10 μg/ml phytohaemagglutinin (PHA-L, EMD/Millipore Sigma, 431784). 16-24 hours post-PHA activation, cells were cultured in R10-50. Primary CD4^+ T cells were infected via spinoculation or treated for other experiments 48 hours after IL-2 addition.
Infections were performed by spinoculation at 1,050 xg for 2 hours at room temperature at a density of 1.0×10^6 cells/mL. Primary cells were spinoculated in undiluted infectious supernatants supplemented with 4 μg/mL hexadimethrine bromide (polybrene, Sigma-Aldrich, H9268). Cell lines were spinoculated with infectious supernatants diluted in D10 to achieve the desired MOI (approximately 50% infection) in the absence of polybrene. Following spinoculation, infectious supernatants were replaced with the appropriate culture medium for the infected cell type.
2 μg/mL 7-aminoactinomycin D (7-AAD; Calbiochem) or 4 ng/mL DAPI (4′,6-diamidino-2-phenylindole; Thermo Scientific) viability dyes were included with secondary antibodies in staining protocols. In all experiments, cells were gated sequentially by forward scatter vs. side scatter for cells, doublet exclusion (forward scatter area vs. height) for singlets, and exclusion of viability dye for viable cells. Flow cytometry data were collected with a BioRad Ze5 cytometer, a MoFlo Astrios cytometer, or a BD FACScan cytometer with Cytek 6-color upgrade, and all flow cytometry data were analyzed with FlowJo software.
Fold inhibition=Fold downmodulation HLA-A2solvent/Fold downmodulation HLA-A2sample
Normalized Nef activity=Fold downmodulation HLA-A2Sample/Fold downmodulation HLA-A2solvent.
Percent restoration=100*(MFlinfected, sample−MFlinfected, solvent)/(MFIuninfected, solvent−MFIinfected, solvent), where MFI=median fluorescence intensity of MHC-I
Curves were generated using GraphPad Prism software using [Inhibitor] vs. response with variable slope (four parameters), and the extra sum-of-squares F test was used to compare the EC50 for different curves.

HIV Nef [2] = test system: HIV Nef; remark: listed apart in the source
Experimental: (i) HIV: Infectious supernatants were prepared by co-transfection of 293T cells using polyethylenimine (PEI) as previously described with each viral construct, the HIV packaging plasmid pCMV-HIV, and pHCMV-G at a mass ratio of 1:1:1. 293T cells were maintained and transfected in D10 medium. Infections were performed by spinoculation at 1,050 xg for 2 hours at room temperature at a density of 1.0×10^6 cells/mL. Primary cells were spinoculated in undiluted infectious supernatants supplemented with 4 μg/mL hexadimethrine bromide (polybrene, Sigma-Aldrich, H9268). Cell lines were spinoculated with infectious supernatants diluted in D10 to achieve the desired MOI (approximately 50% infection) in the absence of polybrene. Following spinoculation, infectious supernatants were replaced with the appropriate culture medium for the infected cell type.
(iii) Adenovirus: Nef-expressing and control adenoviruses were obtained from the university of Michigan Gene Vector Core (vector clone: Ad-Ef1a.dIE3 #6, Nef clone: Ad-EF1 Nef.dIE3 #2) as previously described (35). CEM-A2 cells were transduced in serum-free R10 medium for 6 hours at a concentration of 1.0×10^6 cells/mL, then R10 with 20% FBS was added to achieve a density of 5.0×10^5 cells/mL in R10.

[3] = test system: lysosomal pH in human monocyte-derive macrophages (MDMs); assay: Lysosensor Yellow/Blue dextran analysis of lysosomal pH in MDMs; format: cell-based
Experimental: To measure the lysosomal pH in human monocyte-derive macrophages (MDMs), MDMs adhered to 24-well plates were exposed to 500 μg/mL Lysosensor Yellow/Blue dextran, 10,000 MW (ThermoFisher, L22460) in R10 for 24 hours. MDMs were then exposed to plecomacrolides for 1 hour and harvested with 0.05% Trypsin-EDTA (Gibco 25300054). Cells were washed twice in FACS buffer, and analyzed on a MoFlo Astrios flow cytometer, with blue signal excited from a 354 nm laser and yellow signal excited from a 405 nm laser. A standard curve was generated by resuspending MDMs in equilibration buffers of known pH as previously described. The ratio of blue:yellow fluorescence intensity was calculated for each cell, the median blue:yellow ratio for the cell population for each condition was obtained, and the lysosomal pH in MDMs was calculated for each condition using the standard curve.
Lysosensor Yellow/Blue Dextran Analysis of Lysosomal pH. To measure the lysosomal pH in human MDMs, MDMs adhered to 24-well plates were exposed to 500 μg/mL Lysosensor Yellow/Blue dextran, 10,000 molecular weight (MVV) in R10 for 24 h. MDMs were then exposed to plecomacrolides for 1 h and harvested with 0.05% Trypsin-(ethylenedinitrilo)tetraacetic acid (EDTA). Cells were washed twice in FACS buffer, and analyzed on a flow cytometer, with blue signal excited from a 354-nm laser and yellow signal excited from a 405-nm laser. A standard curve was generated by resuspending MDMs in equilibration buffers of known pH. The ratio of blue:yellow fluorescence intensity was calculated for each cell, the median blue:yellow ratio for the cell population for each condition was obtained, and the lysosomal pH in MDMs was calculated for each condition using the standard curve.

primary CD4+ T cells = assay: MTT and flow cytometric viability assays in primary CD4+ T cells; format: cell-based, human; conditions: Nef activity 24 hours, viability 72 hours
Experimental: CD4^+ T cells were plated at a density of 1×10^5 cells in 200 μL R10-50 in flat-bottom 96-well plates 4 days post-stimulation with PHA. Cells were exposed to titrations of plecomacrolides or solvent controls for 72 hours in culture, at which point viability was assessed relative to solvent by MTT assay in experimental duplicates. Equal volumes of cell culture medium containing CD4^+ T cells were pelleted in 96-well round-bottom plates and incubated in 4.5 mg/mL MTT (Fisher, M6494) in R10 with no Phenol Red at 37° C. until the purple formazan signal was clearly visible. The absorbance of cell pellets resuspended in DMSO was measured at 595 nm on a Molecular Devices Emax precision microplate reader and compared a standard curve of known viable cell numbers to ensure the experimental samples fell within the linear range of the assay.

CC[C@H](C)C(=O)O[C@H]1C[C@@H](C)C=C2C=C[C@H](C)[C@H](CC[C@@H]3C[C@@H](O)CC(=O)O3)[C@H]21 [lovastatin, Lovastatin]
level of MHC-I restoration compared to CMA (HIV Nef [1]): a fraction of the levels achieved by CMA; also recorded: did not achieve comparable levels
restoration of MHC-I (HIV Nef [1]; 24 hours post-treatment): little restoration of MHC-I
restoration of MHC-I to the surface of Nef-expressing cells (HIV Nef [1]; 48 hours of exposure): partially restore MHC-I
concentration required for restoration of MHC-I compared to CMA (HIV Nef [1]; higher than CMA): 2,000 fold

CO/C1=C\C(C)=C\[C@@H](C)[C@@H](O)[C@@H](C)C/C(C)=C/C=C/[C@H](OC)[C@@H]([C@@H](C)[C@@H](O)[C@H](C)[C@@]2(O)C[C@@H](O)[C@H](C)[C@@H](C(C)C)O2)OC1=O [Baf A1]
reduction of Nef-dependent HLA-A2 downmodulation (HIV Nef [2]): over ten-fold
neutralization of lysosomal pH [3]: completely neutralize lysosomal pH
pEC50 ([3]; 1 hour, read-out: EC50 for lysosome neutralization): 7.73
